Columns and labels:
NRAS Q61R = NRAS Q61R (Homo sapiens, UniProt P01111+P62937, Q61R); assay: Disruption of BRAF RBD interaction with Ras (FRET / MOA assay, with Cyclophilin A); assay type: biochemical; settings: NRAS Q61R; read-out: NRAS Q61R FRET data IC50
Method in brief: (§1)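 TR-FRET in 25 mM HEPES pH 7.3, 100 mM NaCl, 5 mM MgCl2, 0.1% BSA: 25 μM Cyclophilin A, 12.5 nM His6-Ras-GMPPNP, 50 nM GST-BRAF RBD with compound (10-point 3-fold series from 30 μM), 3 h at 25° C. Anti-His Eu/anti-GST APC added, 1.5 h more; IC50 from decreased FRET ratio versus DMSO.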

NRAS WT = NRAS WT (Homo sapiens, UniProt P01111+P62937); assay: as above; assay type: biochemical; settings: NRAS WT; read-out: NRAS WT FRET data IC50
Chain of NRAS WT (P01111 whole entry): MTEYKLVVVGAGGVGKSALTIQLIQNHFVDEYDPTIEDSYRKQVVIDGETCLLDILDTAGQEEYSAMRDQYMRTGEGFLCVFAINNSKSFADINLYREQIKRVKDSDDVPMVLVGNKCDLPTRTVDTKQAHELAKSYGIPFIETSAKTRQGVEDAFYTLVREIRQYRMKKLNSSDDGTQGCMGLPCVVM
Chain of NRAS WT (P62937 whole entry): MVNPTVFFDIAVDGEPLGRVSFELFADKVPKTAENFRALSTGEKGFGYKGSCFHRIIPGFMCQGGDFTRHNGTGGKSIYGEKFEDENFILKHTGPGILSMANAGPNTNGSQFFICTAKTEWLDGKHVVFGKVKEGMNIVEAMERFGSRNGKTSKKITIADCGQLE
Method in brief: as §1

KRAS Q61H = KRAS Q61H (Homo sapiens, UniProt P01116+P62937, Q61H); assay: as above; assay type: biochemical; settings: KRAS Q61H; read-out: KRAS Q61H FRET data IC50
Chain of KRAS Q61H (P01116 1-169 isoform P01116-2 Q61H limits assumed): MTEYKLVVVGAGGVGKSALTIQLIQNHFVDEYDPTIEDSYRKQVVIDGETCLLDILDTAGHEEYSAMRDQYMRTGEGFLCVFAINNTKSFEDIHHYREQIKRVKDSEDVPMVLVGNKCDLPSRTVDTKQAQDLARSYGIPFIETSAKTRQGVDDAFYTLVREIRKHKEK
Chain of KRAS Q61H (P62937 whole entry): as the sequence (P62937 whole entry) above
Method in brief: as §1

NRAS Q61K = NRAS Q61K (Homo sapiens, UniProt P01111+P62937, Q61K); assay: as above; assay type: biochemical; settings: NRAS Q61K; read-out: NRAS Q61K FRET data IC50
Chain of NRAS Q61K (P01111 whole entry Q61K): as the sequence (P01111 whole entry) above, with Q61K counted along it
Chain of NRAS Q61K (P62937 whole entry): as the sequence (P62937 whole entry) above
Method in brief: as §1

KRAS G13C = KRAS G13C (Homo sapiens, UniProt P01116+P62937, G13C); assay: as above; assay type: biochemical; settings: read-out: KRAS G13C FRET data, IC50
Chain of KRAS G13C (P01116 1-169 isoform P01116-2 G13C): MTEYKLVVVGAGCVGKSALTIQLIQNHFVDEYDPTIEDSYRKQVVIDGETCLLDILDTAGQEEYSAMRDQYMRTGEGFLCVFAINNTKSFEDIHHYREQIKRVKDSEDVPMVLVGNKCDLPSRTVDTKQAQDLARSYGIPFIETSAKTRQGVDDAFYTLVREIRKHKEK
Chain of KRAS G13C (P62937 whole entry): as the sequence (P62937 whole entry) above
Method in brief: (§2)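 Compound-driven ternary complex formation between nucleotide-loaded K-Ras and Cyclophilin A was measured as loss of BRAF RBD binding. Compounds (10-point 3-fold series, top 30 μM final) were incubated 3 h at 25 °C, then anti-His Eu-W1024 (10 nM) and anti-GST allophycocyanin (50 nM) added for 1.5 h. IC50 was taken from the TR-FRET ratio decrease versus DMSO.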

KRAS G12S = KRAS G12S (Homo sapiens, UniProt P01116+P62937, G12S); assay: as above; assay type: biochemical; settings: read-out: KRAS G12S FRET data, IC50
Chain of KRAS G12S (P01116 1-169 isoform P01116-2 G12S limits assumed): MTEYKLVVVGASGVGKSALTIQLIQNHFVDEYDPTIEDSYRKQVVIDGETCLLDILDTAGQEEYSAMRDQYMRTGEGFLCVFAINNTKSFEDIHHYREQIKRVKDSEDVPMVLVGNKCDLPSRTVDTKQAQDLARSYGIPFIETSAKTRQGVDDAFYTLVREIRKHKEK
Chain of KRAS G12S (P62937 whole entry): as the sequence (P62937 whole entry) above
Method in brief: as §2

NRAS G12C = NRAS G12C (Homo sapiens, UniProt P01111+P62937, G12C); assay: as above; assay type: biochemical; settings: NRAS G12C; read-out: NRAS G12C FRET data IC50
Chain of NRAS G12C (P01111 whole entry G12C): as the sequence (P01111 whole entry) above, with G12C counted along it
Chain of NRAS G12C (P62937 whole entry): as the sequence (P62937 whole entry) above

KRAS WT = KRAS WT (Homo sapiens, UniProt P01116+P62937); assay: as above; assay type: biochemical; settings: KRAS WT; read-out: KRAS WT FRET data IC50
Chain of KRAS WT (P01116 1-169 isoform P01116-2 limits assumed): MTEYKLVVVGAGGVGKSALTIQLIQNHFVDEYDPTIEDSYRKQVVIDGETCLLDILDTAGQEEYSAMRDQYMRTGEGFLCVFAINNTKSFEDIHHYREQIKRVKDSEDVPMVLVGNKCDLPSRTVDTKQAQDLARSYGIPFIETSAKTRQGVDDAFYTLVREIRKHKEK
Chain of KRAS WT (P62937 whole entry): as the sequence (P62937 whole entry) above
Method in brief: as §2

KRAS G12C = KRAS G12C (Homo sapiens, UniProt P01116+P62937, G12C); assay: as above; assay type: biochemical; settings: read-out: KRAS G12C FRET data, IC50
Chain of KRAS G12C (P01116 1-169 isoform P01116-2 G12C): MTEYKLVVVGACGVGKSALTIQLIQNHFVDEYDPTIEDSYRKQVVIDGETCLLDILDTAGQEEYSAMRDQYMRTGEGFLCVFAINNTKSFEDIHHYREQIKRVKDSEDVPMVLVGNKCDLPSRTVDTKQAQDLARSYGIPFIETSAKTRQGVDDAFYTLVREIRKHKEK
Chain of KRAS G12C (P62937 whole entry): as the sequence (P62937 whole entry) above
Method in brief: as §2

KRAS G13D = KRAS G13D (Homo sapiens, UniProt P01116+P62937, G13D); assay: as above; assay type: biochemical; settings: KRAS G13D; read-out: KRAS G13D FRET data IC50
Chain of KRAS G13D (P01116 1-169 isoform P01116-2 G13D limits assumed): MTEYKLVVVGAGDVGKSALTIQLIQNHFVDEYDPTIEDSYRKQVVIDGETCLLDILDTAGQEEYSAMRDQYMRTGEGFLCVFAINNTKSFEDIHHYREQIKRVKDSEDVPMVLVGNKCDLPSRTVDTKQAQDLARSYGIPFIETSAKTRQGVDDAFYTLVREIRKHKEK
Chain of KRAS G13D (P62937 whole entry): as the sequence (P62937 whole entry) above
Method in brief: as §2

KRAS G12D = KRAS G12D (Homo sapiens, UniProt P01116+P62937, G12D); assay: as above; assay type: biochemical; settings: read-out: KRAS G12D FRET data, IC50
Chain of KRAS G12D (P01116 1-169 isoform P01116-2 G12D limits assumed): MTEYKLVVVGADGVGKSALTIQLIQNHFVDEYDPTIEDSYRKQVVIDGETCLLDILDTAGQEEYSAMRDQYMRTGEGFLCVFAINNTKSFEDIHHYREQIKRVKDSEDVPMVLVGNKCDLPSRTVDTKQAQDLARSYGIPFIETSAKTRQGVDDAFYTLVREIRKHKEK
Chain of KRAS G12D (P62937 whole entry): as the sequence (P62937 whole entry) above
Method in brief: as §2

KRAS G12V = KRAS G12V (Homo sapiens, UniProt P01116+P62937, G12V); assay: as above; assay type: biochemical; settings: KRAS G12V; read-out: KRAS G12V FRET data IC50
Chain of KRAS G12V (P01116 1-169 isoform P01116-2 G12V limits assumed): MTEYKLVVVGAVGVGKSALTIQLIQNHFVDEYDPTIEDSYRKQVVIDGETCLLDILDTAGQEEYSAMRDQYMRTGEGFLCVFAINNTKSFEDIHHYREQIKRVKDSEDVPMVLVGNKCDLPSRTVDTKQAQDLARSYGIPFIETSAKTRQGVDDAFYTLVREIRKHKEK
Chain of KRAS G12V (P62937 whole entry): as the sequence (P62937 whole entry) above
Method in brief: as §2

NCI-H358 (K-Ras G12C) = assay: CellTiter-Glo cell viability assay, 5-day treatment; assay type: cell-based; settings: Homo sapiens, NCI-H358, 120 h, 5-day treatment; read-out: H358 Cell Viability assay data (K-Ras G12C, IC50)
Method in brief: (§3)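 Seeded cells received test compound by direct dispensing. On day 5 the plates sat at room temperature approximately 30 minutes, then luminescence was measured. Data were normalized to DMSO and curve-fitted with four parameters.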

Capan-1 (K-Ras G12V) = assay: as above; assay type: cell-based; settings: Homo sapiens, CAPAN-1, 120 h, 5-day treatment; read-out: Capan-1 Cell Viability assay data (K-Ras G12V, IC50)
Method in brief: as §3

Chain of NRAS Q61R (P01111 whole entry Q61R): as the sequence (P01111 whole entry) above, with Q61R counted along it
Chain of NRAS Q61R (P62937 whole entry): as the sequence (P62937 whole entry) above

Compound | IC50 (NRAS Q61R) [nM] | IC50 (NRAS WT) [nM] | IC50 (KRAS Q61H) [nM] | IC50 (NRAS Q61K) [nM] | IC50 (KRAS G13C) [nM] | IC50 (KRAS G12S) [nM] | IC50 (NRAS G12C) [nM] | IC50 (KRAS WT) [nM] | IC50 (KRAS G12C) [nM] | IC50 (KRAS G13D) [nM] | IC50 (KRAS G12D) [nM] | IC50 (KRAS G12V) [nM] | IC50 (NCI-H358 (K-Ras G12C)) [nM] | IC50 (Capan-1 (K-Ras G12V)) [nM]
CCn1c(-c2cc(N3CCN(C)CC3)cnc2[C@H](C)OC)c2c3cc(ccc31)-c1csc(n1)C[C@H](NC(=O)[C@H](C(C)C)N(C)C(=O)N1CC(N(C)C)C1)C(=O)N1CCC[C@H](N1)C(=O)OCC(C)(C)C2 (atropisomer, axis not shown) [Example A477] | 10 to 100 | 10 to 100 | 10 to 100 | 10 to 100 | 100 to 1000 | 100 to 1000 | 10 to 100 | 100 to 1000 | 10 to 100 | 100 to 1000 | 100 to 1000 | 10 to 100 | < 10 | < 10
CCn1c(-c2cc(N3CCN(C)CC3)cnc2[C@H](C)OC)c2c3cc(ccc31)-c1csc(n1)C[C@H](NC(=O)[C@H](C(C)C)N(C)C(=O)N1CCC13CCN(C)CC3)C(=O)N1CCC[C@H](N1)C(=O)OCC(C)(C)C2 (atropisomer, axis not shown) [Example A483] | 10 to 100 | 10 to 100 | 10 to 100 | 10 to 100 | 100 to 1000 | 10 to 100 | 10 to 100 | 10 to 100 | 10 to 100 | 100 to 1000 | 10 to 100 | 100 to 1000 | < 10 | 10 to 100
CCn1c(-c2cc(C3CCN(C)CC3)cnc2[C@H](C)OC)c2c3cc(ccc31)-c1csc(n1)C[C@H](NC(=O)[C@H](C(C)C)N(C)C(=O)N(C)C)C(=O)N1CCC[C@H](N1)C(=O)OCC(C)(C)C2 (atropisomer, axis not shown) [Example A484] | 100 to 1000 | 10 to 100 | 10 to 100 | 10 to 100 | 100 to 1000 | 100 to 1000 | 10 to 100 | 100 to 1000 | 10 to 100 | 100 to 1000 | 100 to 1000 | 100 to 1000 | < 10 | < 10
CCn1c(-c2cccnc2[C@H](C)OC)c2c3cc(ccc31)-c1csc(n1)C[C@H](NC(=O)[C@H](C(C)C)N(C)C(=O)N1CCC3(CN(C)C3)C1)C(=O)N1CCC[C@H](N1)C(=O)OCC(C)(C)C2 (atropisomer, axis not shown) [Example A503] | 10 to 100 | 10 to 100 | 10 to 100 | 10 to 100 | 100 to 1000 | 10 to 100 | 10 to 100 | 10 to 100 | 10 to 100 | 100 to 1000 | 100 to 1000 | 100 to 1000 | 10 to 100 | 10 to 100
CCn1c(-c2cc(C3CCN(C)CC3)cnc2[C@H](C)OC)c2c3cc(ccc31)-c1csc(n1)C[C@H](NC(=O)[C@H](C(C)C)N(C)C(=O)N1CCOCC1)C(=O)N1CCC[C@H](N1)C(=O)OCC(C)(C)C2 (atropisomer, axis not shown) [Example A505] | 10 to 100 | 10 to 100 | 10 to 100 | 10 to 100 | 100 to 1000 | 100 to 1000 | 10 to 100 | 10 to 100 | 10 to 100 | 100 to 1000 | 100 to 1000 | 100 to 1000 | < 10 | < 10

The next lines start with results.

IC50 (NRAS Q61R) [nM] | IC50 (NRAS WT) [nM] | IC50 (KRAS Q61H) [nM] | IC50 (NRAS Q61K) [nM] | IC50 (KRAS G13C) [nM] | IC50 (KRAS G12S) [nM] | IC50 (NRAS G12C) [nM] | IC50 (KRAS WT) [nM] | IC50 (KRAS G12C) [nM] | IC50 (KRAS G13D) [nM] | IC50 (KRAS G12D) [nM] | IC50 (KRAS G12V) [nM] | IC50 (NCI-H358 (K-Ras G12C)) [nM] | Compound | IC50 (Capan-1 (K-Ras G12V)) [nM]
100 to 1000 | 10 to 100 | 10 to 100 | 10 to 100 | 100 to 1000 | 100 to 1000 | 10 to 100 | 100 to 1000 | 10 to 100 | 100 to 1000 | 100 to 1000 | 100 to 1000 | < 10 | CCn1c(-c2cccnc2[C@H](C)OC)c2c3cc(ccc31)-c1csc(n1)C[C@H](NC(=O)[C@H](C(C)C)N(C)C(=O)N1CC([C@H](C)CO)C1)C(=O)N1CCC[C@H](N1)C(=O)OCC(C)(C)C2 (atropisomer, axis not shown) [Example A478] | 10 to 100
100 to 1000 | 100 to 1000 | 100 to 1000 | 10 to 100 | 100 to 1000 | 100 to 1000 | 100 to 1000 | 100 to 1000 | 100 to 1000 | 100 to 1000 | 1000 to 10000 | 100 to 1000 | 10 to 100 | CCn1c(-c2cccnc2[C@H](C)OC)c2c3cc(ccc31)-c1csc(n1)C[C@H](NC(=O)[C@H](C(C)C)N(C)C(=O)N1CC3(CC(N4CCOCC4)C3)C1)C(=O)N1CCC[C@H](N1)C(=O)OCC(C)(C)C2 (atropisomer, axis not shown) [Example A486] | 10 to 100
100 to 1000 | 100 to 1000 | 10 to 100 | 10 to 100 | 100 to 1000 | 100 to 1000 | 10 to 100 | 100 to 1000 | 10 to 100 | 100 to 1000 | 100 to 1000 | 100 to 1000 | 10 to 100 | CCn1c(-c2cccnc2[C@H](C)OC)c2c3cc(ccc31)-c1csc(n1)C[C@H](NC(=O)[C@H](C(C)C)N(C)C(=O)N1CC([C@@H](C)NC)C1)C(=O)N1CCC[C@H](N1)C(=O)OCC(C)(C)C2 (atropisomer, axis not shown) [Example A488] | 100 to 1000
100 to 1000 | 100 to 1000 | 100 to 1000 | 10 to 100 | 100 to 1000 | 100 to 1000 | 10 to 100 | 100 to 1000 | 10 to 100 | 100 to 1000 | 1000 to 10000 | 100 to 1000 | 10 to 100 | CCn1c(-c2cccnc2[C@H](C)OC)c2c3cc(ccc31)-c1csc(n1)[C@@H](O)[C@H](NC(=O)[C@H](C(C)C)N(C)C(=O)N1CC(N(C)C)C1)C(=O)N1CCC[C@H](N1)C(=O)OCC(C)(C)C2 (atropisomer, axis not shown) [Example A489] | 100 to 1000
100 to 1000 | 100 to 1000 | 10 to 100 | 10 to 100 | 100 to 1000 | 100 to 1000 | 10 to 100 | 100 to 1000 | 10 to 100 | 100 to 1000 | 1000 to 10000 | 100 to 1000 | 10 to 100 | CCn1c(-c2cccnc2[C@H](C)OC)c2c3cc(ccc31)-c1csc(n1)C[C@H](NC(=O)[C@H](C(C)C)N(C)C(=O)N1CC3(CC(O)C3)C1)C(=O)N1CCC[C@H](N1)C(=O)OCC(C)(C)C2 (atropisomer, axis not shown) [Example A510] | 10 to 100
10 to 100 | 100 to 1000 | 10 to 100 | 10 to 100 | 100 to 1000 | 100 to 1000 | 100 to 1000 | 100 to 1000 | 100 to 1000 | 100 to 1000 | 100 to 1000 | 100 to 1000 | 10 to 100 | CCn1c(-c2cccnc2[C@H](C)OC)c2c3cc(ccc31)-c1csc(n1)C[C@H](NC(=O)[C@H](C(C)C)N(C)C(=O)N1CCCC13CCOCC3)C(=O)N1CCC[C@H](N1)C(=O)OCC(C)(C)C2 (atropisomer, axis not shown) [Example A520] | 10 to 100

— patent US20230233569A1 (Revolution Medicines, Inc., priority 2020, published 2023)
